Experimental data: patent US8017618B2, “Antifolate agent combinations in the treatment of cancer” (Tracon Pharmaceuticals, Inc., priority 2006, dated 2011)
Where two headings read alike, the source gives them in different places.

Experiments:
HCT116 tumors = assay: Tumors in nude mice: HCT116 colon cancer cell line model; format: in vivo, female athymic HSD nude mice; conditions: MX 4 mg/kg with pemetrexed 150 mg/kg, five daily i.p. injections
Method: (§1) Tumors in Nude Mice. […] Animals received five daily intraperitoneal injections of either saline, pemetrexed alone (150 mg/kg), MX alone (4 mg/kg), or a combination of pemetrexed (150 mg/kg) and MX (4 mg/kg) with a pemetrexed to MX ratio of […].

[1] = Oral and intravenous bioavailability study of MX via a single bolus administration to Sprague Dawley rats (plasma LC-MS/MS, noncompartmental PK); format: in vivo
Method: Oral and Intravenous Bioavailability Study of MX Via a Single Bolus Administration to Sprague Dawley Rats (Non-GLP). The studies described below were performed to evaluate the bioavailability of methoxyamine (MX) at the safe dose level by comparison of the pharmacokinetic parameters after single bolus oral and intravenous administrations of MX
Test Animals. Thirty male and thirty female Sprague Dawley rats, 250-350 g, 7-10 weeks of age, were used during the study.
Dose Preparation and Concentration. One dose solution was prepared on the same day of dose administration, adjusted for the 98% purity of the test article, to achieve a concentration of 4.00 mg/mL “active” MX, 816.77 mg of MX was dissolved into 5% dextrose in a 200-mL volumetric flask. The prepared solution was equally divided into two amber bottles designated for either oral or IV administration. Aliquots were taken for analysis at preparation and after dosing, transported on dry ice and stored at <−70° C.
Dose Administration. All animals were weighed on the day of dose administration. Individual animal doses were based on this body weight. A constant dose volume of 5 mL/kg was used. IV doses were administered through a single bolus injection into the tail vein using a 3-mL syringe attached to a 26G×1″ needle. The IV dose was administered at a rate of approximately 2 mL/min. Oral doses were administered as a single bolus with an 18G×2″ feeding needle attached to a 3-mL syringe.
Blood Sample Collection. Blood samples were collected at 5, 15, 30 mins, and 1, 2, 4, 6, 8, 12 and 24 hrs post-dose, with collection at two time points for each animal. Blood samples were collected through the jugular vein for the earlier time point and through the abdominal vein at sacrifice for the later time point. The blood was transferred from the drawing syringe into a 2 mL blood collection tube containing K3-EDTA as the anticoagulant and inverted to mix. Abdominal vein blood collection was performed immediately following CO2 euthanasia.
Plasma Sample Preparation and Storage Conditions. The blood tube was placed on wet ice before centrifugation for plasma preparation. Whole blood samples were centrifuged at 3,000 rpm at 4° C., for 10 min. Plasma was pipetted into tubes and placed on dry ice initially and later stored at <−70° C.
Mass spectrometry (MS). Mass spectrometric detection was performed by electrospray ionization with positive turbo spray, according to the specifications listed below.
Plasma Sample for LC-MS/MS Analysis. Individual plasma samples were thawed at ambient temperature and 250 μL was aliquoted for analysis if a dilution was not needed. Samples taken at 5 min to 1 hr from IV dosed animals or 15 min to 8 hr from orally dosed animals required 5-to 40-fold dilution to fall in the linear range of the method (1 to 1,000 ng/mL). For the samples requiring dilution, an appropriate volume was taken and mixed with blank rat plasma containing the same anticoagulant to make a total volume of 250 μL. The quantitation results were corrected with the dilution factor. Plasma was prepared for LC-MS/MS analysis as follows: • Plasma aliquots were vortexed for 30 seconds, and centrifuged at 14,000 rpm for 10 min to precipitate the interfering particles. • A 100 μL aliquot was taken from the supernatant and placed into a 1.5 mL microcentrifuge tube. • To the 100 μL plasma aliquot, 310 μL of H2O: formic acid (2:1), 30 μL of acenocoumerol (IS) in H2O (10 μg/mL) and 100 μL of diethylaminobenzaldehyde in 2:1H2O: formic acid solution (10 mg/mL) were added and mixed well. • The mixture was then incubated in a water bath at 80° C. for 2 hrs. After incubation, the supernatant was transferred into a HPLC vial for LC-MS/MS quantitation.
Methoxyamine (MX) Pharmacokinetics and Bioavailability Analysis. Pharmacokinetics Analysis. […]

NCI-H460 tumors = assay: Tumors in nude mice: NCI-H460 NSCLC cell line model; format: in vivo, female athymic HSD nude mice; conditions: MX 4 mg/kg with pemetrexed 150 mg/kg, five daily i.p. injections
Method: as §1

topoisomerase II = assay: Topoisomerase II-mediated DNA cleavage of AP or MX-AP site substrates; format: biochemical; conditions: AP site at a topoisomerase II cleavage site, incubated with MX
Method: Analysis of the effect of AP site or MX-AP site on topoisomerase II-mediated DNA cleavage. A position-specific apurinic site was incorporated by replacing a single nucleoside with deoxyuridine at a topoisomerase II cleavage site and then removing the uracil base with uracil-DNA glycosylase, generating AP sites that further are incubated with MX to produce MX-AP sites (FIG. 5A).
First, it was determined whether APE has a differential effect between regular AP sites and MX-AP sites located in a position specific site for topo II cleavage.

H460 cells = conditions: for formation of AP sites: pemetrexed 100, 200 and 400 μM, 24 hours, induction proportional to dose
Method: To determine the effect of pemetrexed+methoxyamine (MX) compared to pemetrexed alone on the number of AP sites generated, an aldehyde reactive probe (ARP) reagent was used to measure AP sites formed by pemetrexed and blocked by MX. ARP and MX have a similar reactivity with AP sites, and react specifically with an aldehyde group, an open-ring form of the AP sites. […] H460 cells were treated with pemetrexed (0, 100, 200 or 400 μm) for 24 hours. DNA (15 μg) was then extracted from cells and incubated with 1 mM ARP at 37° C. for 10 min. DNA was precipitated and washed with ethanol, then resuspended in TE buffer (10 mM Tris-HCl, pH 7.2, 1 mM EDTA) and denatured at 100° C. for 5 min. The DNA was then quickly chilled on ice and mixed with an equal amount of ammonium acetate (2 M). Single-stranded DNA was then immobilized on a nitrocellulose membrane using a vacuum filter device. The membrane was incubated with streptavidin-conjugated horseradish peroxidase at room temperature for 30 min and rinsed with washing buffer (20 mM Tris-HCl, 1 mM EDTA, 0.26 M NaCl, 1% Tween-20). ARP-AP sites were visualized with ECL reagents (Amersham, Piscataway, N.J.). […] The effect of the combination of 200 μM pemetrexed and 6 mM MX was viewed at 24 hrs, 48 hrs and 72 hrs.

[2] = both sexes, Sprague-Dawley, rat, in vivo, po, 20 mg/kg
[3] = female, Sprague-Dawley, rat, in vivo, 20 mg/kg
[4] = female, Sprague-Dawley, rat, in vivo, iv, 20 mg/kg
[5] = female, Sprague-Dawley, rat, in vivo, po, 20 mg/kg
[6] = male, Sprague-Dawley, rat, in vivo, 20 mg/kg
[7] = male, Sprague-Dawley, rat, in vivo, iv, 20 mg/kg
[8] = male, Sprague-Dawley, rat, in vivo, po, 20 mg/kg

## CON [MX, Methoxyamine]
HCT116 tumors
  reversal of resistance to pemetrexed chemotherapy: reversed resistance
[1]; Sprague-Dawley, rat, in vivo, po
  half-life: > 4 h
[1]; Sprague-Dawley, rat, in vivo, po, 20 mg/kg
  serum levels following oral dosing versus target Cmax associated with activity in mouse models of human cancer: > 50 ng/mL
[1]; both sexes, Sprague-Dawley, rat, in vivo
  half-life: 4 to 6 h
[1]; [2]
  Tmax: 0.5 to 1 h
  bioavailability: ~100%
[1]; [3]
  Bioavailability (absolute, oral to IV AUC0-∞5 ratio): 94%
  F: 0.94
[1]; female, Sprague-Dawley, rat, in vivo, iv
  distribution phase complete (time postdose): approximately 2 hrs
[1]; [4]
  AUC0-∞5 (AUC0-∞ normalized to a total dose amount of 5 mg MX): 13892 ng·h/mL
  AUC(0-inf): 13100 ng·h/mL
  AUC(0-t): 13000 ng·h/mL
  Cmax: 11000 ng/mL
  Tmax: 0.08 h
  half-life: 4.6 h
[1]; [5]
  AUC(0-inf): 12000 ng·h/mL
  AUC(0-t): 11600 ng·h/mL
  Cmax: 2960 ng/mL
  Tmax: 0.5 h
  half-life: 5.7 h
[1]; [6]
  Bioavailability (absolute, oral to IV AUC0-∞5 ratio): 110%
  F: 1.1
[1]; male, Sprague-Dawley, rat, in vivo, iv
  distribution phase complete (time postdose): approximately 2 hrs
[1]; [7]
  AUC0-∞5 (AUC0-∞ normalized to a total dose amount of 5 mg MX): 11284 ng·h/mL
  AUC(0-inf): 12700 ng·h/mL
  AUC(0-t): 12500 ng·h/mL
  Cmax: 15500 ng/mL
  Tmax: 0.08 h
  half-life: 5.2 h
[1]; [8]
  AUC0-∞5 (AUC0-∞ normalized to a total dose amount of 5 mg MX): 12420 ng·h/mL
  AUC(0-inf): 13800 ng·h/mL
  AUC(0-t): 13600 ng·h/mL
  Cmax: 2200 ng/mL
  Tmax: 1 h
  half-life: 4.2 h
[1]; rats, 20 mg/kg body weight intravenously or orally
  clinical signs of toxicity: no clinical signs of toxicity
NCI-H460 tumors
  reversal of resistance to pemetrexed chemotherapy: reversed resistance
Topoisomerase II
  topoisomerase II-mediated cleavage of MX-AP sites: MX-AP sites are able to stimulate topoisomerase II-mediated DNA cleavage

## Nc1nc2[nH]cc(CCc3ccc(C(=O)N[C@@H](CCC(=O)O)C(=O)O)cc3)c2c(=O)[nH]1 [pemetrexed, 2-[4-[2-(4-amino-2-oxo-3,5,7-triazabicyclo[4.3.0]nona-3,8,10-trien-9-yl)ethyl]benzoyl]aminopentanedioic acid]
H460 cells; 200 μM pemetrexed, 6 mM MX, 24 hrs, 48 hrs and 72 hrs
  number of detectable AP sites over time: number of detectable AP sites were reduced
H460 cells
  formation of AP sites: induces the formation of AP sites
H460 cells; listed as Pemetrexed
  formation of AP sites: induced the formation of AP sites
